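1) Cells in 96-well plates. 2) Compound, 48 h, 5 concentrations. 3) Linear interpolation between surrounding doses. 4) Unreached endpoint = highest concentration. GI50: concentration for 50% inhibition of growth.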 Activity calls are given as the source filed them. Cut-off read from the data, not from the text of the source: active = GI50 up to about 1.1 µM and inactive = higher.
Legend:
Assay in all cases: growth of human tumour cells (NCI), 48 h
HL-60 = tested on: HL-60
SW-620 = tested on: SW-620
OVCAR-4 = tested on: OVCAR-4
786-0 = tested on: 786-0
SNB-19 = tested on: SNB-19
SF-295 = tested on: SF-295
K562 = tested on: K562
A549 = tested on: A549
LXFL 529 = tested on: LXFL 529
SF-539 = tested on: SF-539
DLD-1 = tested on: DLD-1
NCI-H460 = tested on: NCI-H460
CAKI-1 = tested on: CAKI-1
UO-31 = tested on: UO-31
RPMI-8226 = tested on: RPMI-8226
HCC 2998 = tested on: HCC 2998
IGROV-1 = tested on: IGROV-1
UACC-62 = tested on: UACC-62
SF-268 = tested on: SF-268
OVCAR-8 = tested on: OVCAR-8
KM12 = tested on: KM12
RXF 393 = tested on: RXF 393
NCI-H23 = tested on: NCI-H23
NCI-H226 = tested on: NCI-H226
M19-MEL = tested on: M19-MEL
NCI-H522 = tested on: NCI-H522
Malme-3M = tested on: Malme-3M
SN12C = tested on: SN12C
CCRF-CEM = tested on: CCRF-CEM
SK-MEL-5 = tested on: SK-MEL-5
XF498 = tested on: XF498
TK-10 = tested on: TK-10
M14 = tested on: M14
SK-OV-3 = tested on: SK-OV-3
LOX IMVI = tested on: LOX IMVI
SNB-75 = tested on: SNB-75
EKVX = tested on: EKVX
RXF 631 = tested on: RXF 631
UACC-257 = tested on: UACC-257
HCT-15 = tested on: HCT-15
MOLT-4 = tested on: MOLT-4
ACHN = tested on: ACHN
HOP-18 = tested on: HOP-18
HOP-62 = tested on: HOP-62
OVCAR-3 = tested on: OVCAR-3
KM-20L2 = tested on: KM-20L2
DMS-273 = tested on: DMS-273
COLO 205 = tested on: COLO 205
SK-MEL-2 = tested on: SK-MEL-2
HT-29 = tested on: HT-29
A498 = tested on: A498
OVCAR-5 = tested on: OVCAR-5
DMS-114 = tested on: DMS-114
SK-MEL-28 = tested on: SK-MEL-28
HCT-116 = tested on: HCT-116
SNB-78 = tested on: SNB-78
U-251 = tested on: U-251
HOP-92 = tested on: HOP-92
SR = tested on: SR

Measured: GI50

O=C(Cc1nc2ccccc2s1)Nc1cccc(C(F)(F)F)c1
12.4 µM: HCT-15
inactive: HL-60 3.59 µM | SW-620 19.2 µM | OVCAR-4 16.2 µM | 786-0 14.2 µM | SNB-19 16.9 µM | SF-295 16.2 µM | K562 9.16 µM | A549 21 µM | LXFL 529 13.4 µM | SF-539 18.8 µM | DLD-1 14.2 µM | NCI-H460 15.8 µM | CAKI-1 16.7 µM | UO-31 14.5 µM | RPMI-8226 7.5 µM | HCC 2998 15.6 µM | IGROV-1 13 µM | UACC-62 12.6 µM | SF-268 14.8 µM | OVCAR-8 18.1 µM | KM12 15.2 µM | RXF 393 18.2 µM | NCI-H23 14.8 µM | NCI-H226 21.8 µM | M19-MEL 13 µM | NCI-H522 14.1 µM | Malme-3M 16.6 µM | SN12C 16.1 µM | CCRF-CEM 1.81 µM | SK-MEL-5 16.5 µM | XF498 14.8 µM | TK-10 21.2 µM | M14 15.6 µM | SK-OV-3 29.5 µM | LOX IMVI 13.1 µM | SNB-75 13.7 µM | EKVX 22.2 µM | RXF 631 13.8 µM | UACC-257 14.4 µM | MOLT-4 6.89 µM | ACHN 13.6 µM | HOP-18 18.5 µM | HOP-62 17.9 µM | OVCAR-3 17.6 µM | KM-20L2 20.4 µM | DMS-273 18.7 µM | COLO 205 17 µM | SK-MEL-2 18.5 µM | HT-29 17.1 µM | A498 5.3 µM | OVCAR-5 18.5 µM | DMS-114 15.6 µM | SK-MEL-28 15 µM

CCOC(=O)c1ccc(/C(C)=N/NC(N)=S)cc1
inactive: HL-60 > 100 µM | SW-620 > 100 µM | OVCAR-4 > 100 µM | 786-0 > 100 µM | SNB-19 > 100 µM | SF-295 > 100 µM | K562 > 100 µM | A549 > 100 µM | LXFL 529 > 100 µM | SF-539 > 100 µM | DLD-1 > 100 µM | NCI-H460 > 100 µM | RPMI-8226 > 100 µM | HCC 2998 > 100 µM | IGROV-1 > 100 µM | UACC-62 > 100 µM | OVCAR-8 > 100 µM | RXF 393 > 100 µM | NCI-H23 > 100 µM | M19-MEL > 100 µM | HCT-116 > 100 µM | SN12C > 100 µM | CCRF-CEM > 100 µM | SK-MEL-5 > 100 µM | XF498 > 100 µM | TK-10 > 100 µM | M14 > 100 µM | SK-OV-3 > 100 µM | LOX IMVI > 100 µM | SNB-75 > 100 µM | EKVX 2.74 µM | RXF 631 > 100 µM | MOLT-4 > 100 µM | SNB-78 > 100 µM | ACHN > 100 µM | HOP-18 > 100 µM | U-251 > 100 µM | HOP-62 > 100 µM | OVCAR-3 > 100 µM | KM-20L2 > 100 µM | DMS-273 > 100 µM | HOP-92 > 100 µM | COLO 205 > 100 µM | A498 > 100 µM | DMS-114 > 100 µM | SK-MEL-28 > 100 µM
> 100 µM: HCT-15

Cc1ccc(/N=C/c2ccc3c(c2)OCO3)cc1C
inactive: HL-60 > 100 µM | SW-620 > 100 µM | 786-0 > 100 µM | SNB-19 > 100 µM | SF-295 > 100 µM | K562 > 10 µM | A549 > 100 µM | LXFL 529 > 100 µM | SF-539 > 100 µM | DLD-1 > 100 µM | NCI-H460 > 100 µM | CAKI-1 > 100 µM | UO-31 > 100 µM | RPMI-8226 > 100 µM | IGROV-1 > 100 µM | UACC-62 > 100 µM | SF-268 > 100 µM | OVCAR-8 > 100 µM | KM12 > 100 µM | RXF 393 > 100 µM | NCI-H23 > 100 µM | NCI-H226 > 100 µM | M19-MEL > 100 µM | NCI-H522 > 100 µM | Malme-3M > 100 µM | HCT-116 > 100 µM | SN12C > 100 µM | CCRF-CEM > 100 µM | SK-MEL-5 > 100 µM | XF498 > 100 µM | TK-10 > 100 µM | M14 > 100 µM | SK-OV-3 > 100 µM | LOX IMVI > 100 µM | SNB-75 > 100 µM | EKVX > 100 µM | RXF 631 > 100 µM | MOLT-4 > 100 µM | SNB-78 > 100 µM | ACHN > 100 µM | HOP-18 > 100 µM | SR > 100 µM | U-251 8.13 µM | OVCAR-3 > 100 µM | KM-20L2 > 100 µM | DMS-273 > 100 µM | HOP-92 > 100 µM | COLO 205 > 100 µM | SK-MEL-2 > 100 µM | HT-29 > 100 µM | A498 > 100 µM | OVCAR-5 > 100 µM | SK-MEL-28 > 100 µM
> 100 µM: HCT-15

Cc1cc(Cl)ccc1NC(=O)C(=O)Cc1nc2ccccc2o1
> 100 µM: HCT-15
inactive: HL-60 > 100 µM | SW-620 > 100 µM | OVCAR-4 > 100 µM | 786-0 > 100 µM | SNB-19 > 100 µM | SF-295 > 100 µM | K562 > 100 µM | A549 > 100 µM | LXFL 529 > 100 µM | SF-539 > 100 µM | DLD-1 > 100 µM | NCI-H460 > 100 µM | CAKI-1 > 100 µM | UO-31 > 100 µM | RPMI-8226 > 100 µM | HCC 2998 > 100 µM | IGROV-1 > 100 µM | UACC-62 > 100 µM | SF-268 > 100 µM | OVCAR-8 > 100 µM | KM12 > 100 µM | RXF 393 > 100 µM | NCI-H23 > 100 µM | M19-MEL > 100 µM | NCI-H522 > 100 µM | Malme-3M > 100 µM | SN12C > 100 µM | CCRF-CEM > 100 µM | SK-MEL-5 > 100 µM | XF498 > 100 µM | TK-10 > 100 µM | M14 > 100 µM | SK-OV-3 > 100 µM | LOX IMVI > 100 µM | SNB-75 > 100 µM | EKVX > 100 µM | RXF 631 > 100 µM | UACC-257 > 100 µM | MOLT-4 > 100 µM | SNB-78 > 100 µM | ACHN > 100 µM | HOP-18 > 100 µM | U-251 > 100 µM | HOP-62 > 100 µM | OVCAR-3 > 100 µM | KM-20L2 > 100 µM | DMS-273 > 100 µM | HOP-92 > 100 µM | COLO 205 > 100 µM | SK-MEL-2 > 100 µM | HT-29 > 100 µM | A498 > 100 µM | OVCAR-5 > 100 µM | DMS-114 > 100 µM | SK-MEL-28 > 100 µM

Clc1ccc(Cc2nc3ccccc3s2)c(Cl)c1
inactive: HL-60 15.5 µM | SW-620 21.8 µM | OVCAR-4 13.2 µM | 786-0 14.6 µM | SNB-19 24.3 µM | SF-295 16.8 µM | K562 14.8 µM | A549 19.7 µM | LXFL 529 16.8 µM | SF-539 3.65 µM | DLD-1 15.3 µM | NCI-H460 19.8 µM | CAKI-1 17.4 µM | UO-31 16.4 µM | RPMI-8226 17.7 µM | HCC 2998 18.6 µM | IGROV-1 14.8 µM | UACC-62 14.1 µM | SF-268 15.7 µM | OVCAR-8 19.8 µM | KM12 16.6 µM | RXF 393 20.9 µM | NCI-H23 > 10 µM | NCI-H226 20.4 µM | M19-MEL 15.7 µM | NCI-H522 15.7 µM | Malme-3M 16.9 µM | SN12C 16.5 µM | CCRF-CEM 5.21 µM | SK-MEL-5 17.5 µM | XF498 13.6 µM | TK-10 22.7 µM | M14 16.4 µM | SK-OV-3 28.2 µM | LOX IMVI 16.7 µM | SNB-75 14.7 µM | EKVX 23.6 µM | RXF 631 16.4 µM | UACC-257 17.5 µM | MOLT-4 14.3 µM | ACHN 17.5 µM | HOP-18 16 µM | HOP-62 18.3 µM | OVCAR-3 18.6 µM | KM-20L2 25.6 µM | DMS-273 18 µM | COLO 205 17 µM | SK-MEL-2 16.4 µM | HT-29 20.6 µM | A498 17.2 µM | OVCAR-5 19.3 µM | DMS-114 17 µM | SK-MEL-28 18.3 µM
16.3 µM: HCT-15

From ChEMBL document CHEMBL1201862, “PubChem BioAssay data set” (2004)
